These are literature values, as cited in patent publication US8226980B2, “Orally disintegrating solid dosage forms comprising progestin and methods of making and using thereof” (Teva Women's Health, Inc., priority 2006, dated 2012).

Where two headings read alike, the source gives them in different places.

For this series the following is noted: for Dose roughly equivalent to 0.050 mg of levonorgestrel: in a contraceptive regimen.

As for `C#C[C@]1(O)CC[C@H]2[C@@H]3CCC4=C(CCC(=O)C4)[C@H]3CC[C@@]21C` [Norethynodrel], the “Norethindrone Equivalent* Dose” value by setting is: (progestin Dose 2.50 mg) 2.50 mg; (progestin Dose 5.00 mg) 5.00 mg; (progestin Dose 9.85 mg) 9.85 mg.

For the compound `C#C[C@]1(O)CC[C@H]2[C@@H]3CCC4=CC(=O)CC[C@@H]4[C@H]3CC[C@@]21C` [Norethindrone], the “Norethindrone Equivalent* Dose” value by setting is: (progestin Dose 1.00 mg) 1.00 mg; (progestin Dose 2.00 mg) 2.00 mg; (progestin Dose 10.00 mg) 10.00 mg.

`C#C[C@]1(OC(C)=O)CC[C@H]2[C@@H]3CCC4=C[C@@H](OC(C)=O)CC[C@@H]4[C@H]3CC[C@@]21C` [Ethynodiol diacetate]: the “Norethindrone Equivalent* Dose” value (progestin Dose 1.00 mg) is recorded as 1.00 mg.

In the case of `C#C[C@]1(O)CCC2C3CCC4=CC(=O)CCC4C3CCC21CC` (stereo partly drawn) [Levonorgestrel, 18,19-Dinorpregn-4-en-20-yn-3-one-13-ethyl-17-hydroxy-, (17α)-(−)-], the “Norethindrone Equivalent* Dose” value is, setting by setting: (progestin Dose 0.10 mg) 0.35 mg; (progestin Dose 0.15 mg) 0.52 mg.

As to `C#C[C@]1(O)CC[C@H]2[C@@H]3CCC4=CCCC[C@@H]4[C@H]3C(=C)C[C@@]21CC` [desogestrel], the “Dose roughly equivalent to 0.050 mg of levonorgestrel” value (“Dose roughly equivalent to 0.050 mg” below) is “about 0.050 mg”.

In the case of `C#C[C@]1(O)CC[C@H]2[C@@H]3CCC4=CC(=O)CC[C@@H]4[C@H]3C(=C)C[C@@]21CC` [3-ketodesogestrel], the “Dose roughly equivalent to 0.050 mg” value is given as “about 0.050 mg”.

Regarding `C#C[C@]1(OC(C)=O)CC[C@H]2[C@@H]3CCC4=CC(=O)CC[C@@H]4[C@H]3CC[C@@]21C` [Norethindrone acetate], the “Dose roughly equivalent to 0.050 mg” value was “about 0.175 mg”. The “Norethindrone Equivalent* Dose” value (progestin Dose 0.40 mg) is recorded as 0.40 mg. Moreover, the “Norethindrone Equivalent* Dose” value (progestin Dose 0.50 mg) was 0.50 mg. Moreover, the “Norethindrone Equivalent* Dose” value (progestin Dose 0.60 mg) is 0.60 mg. Moreover, the “Norethindrone Equivalent* Dose” value (progestin Dose 1.00 mg) was 1.00 mg. The “Norethindrone Equivalent* Dose” value (progestin Dose 1.50 mg) was 1.50 mg. Besides, the “Norethindrone Equivalent* Dose” value (progestin Dose 2.50 mg) was 2.50 mg.

As for `C#C[C@]1(O)C=C[C@H]2[C@@H]3CCC4=CC(=O)CC[C@@H]4[C@H]3CC[C@@]21CC` [gestodene], the “Dose roughly equivalent to 0.050 mg” value is “about 0.035 mg”.

`C#CC1(O)CC[C@H]2[C@@H]3CCC4=CC(=O)CC[C@@H]4[C@H]3CC[C@@]21CC` (mixture of isomers) [dl-Norgestrel]: the “Dose roughly equivalent to 0.050 mg” value is listed as “about 0.100 mg”. In addition, the “Norethindrone Equivalent* Dose” value (progestin Dose 0.30 mg) is 0.45 mg. Also, the “Norethindrone Equivalent* Dose” value (progestin Dose 0.50 mg) is recorded as 0.75 mg.
